Values after ≈ are worked out from the molar mass of the structure shown. Where two headings read alike, the source gives them in different places.
Tests used:
K. pneumoniae DSM-30104 = format: cell-based, Klebsiella pneumoniae
Protocol: (§1) The antibacterial activity of novel darobactins was determined by the evaluation of the minimum inhibitory concentration (MIC) as previously described for crude extracts and for pure darobactin analogues.[12]

[1] = biological target: T1, EcBamA (E. coli BamA barrel domain) (Escherichia coli, UniProt P0A940, C690S/C700S); test: Microscale thermophoresis (MST) KD determination; format: binding
T1 construct: The E. coli BamA barrel domain (BamA-β) (residues 421–810, C690S, C700S); made in house
Protocol: As an alternative to the previously published methods using isothermal titration calorimetry (ITC), we established a KD determination assay using microscale thermophoresis (MST) to enable higher throughput.
Microscale thermophoresis (MST) (serial no. 201709-BR-N024, Monolith NT.115 Micro Scale Thermophoresis, NanoTemper Technologies GmbH) was performed according to the standard protocol from the manufacturer NanoTemper Technologies GmbH using a Monolith His-Tag Labeling Kit RED-tris-NTA second-generation kit. The buffer used was HEPES (50 mM), pH 7.6, MgCl2 (5 mM), and Tween (0.05%). […] A 1:1 dilution of the ligand over 16 samples was performed using a stock of ligand (in water) diluted in HEPES buffer. Nonhydrophobic capillary tubes were used. A pretest to check for the labeling and compound fluorescence was performed for every sample followed by a binding affinity (KD) determination. Each sample was measured after 15 min of incubation at RT and analyzed in MO Control version 1.6.

P. aeruginosa PA01 = format: cell-based, Pseudomonas aeruginosa
Protocol: as §1

A. baumannii DSM-30008 = format: cell-based, Acinetobacter baumannii
Protocol: as §1

E. coli ATCC25922 = format: cell-based, Escherichia coli
Protocol: as §1

[2] = rat (Wistar) plasma; 1 μM
Protocol: (§2) To determine stability in plasma, the compound (1 μM) was incubated with pooled CD-1 mouse, Wistar rat, or human plasma (Neo Biotech, Nanterre, France). […] Samples were stored on ice until the end of the incubation, and precipitated protein was removed by centrifugation (15 min, 4 °C, 4000g, and 2 centrifugation steps). The concentration of the remaining test compound at the different time points was analyzed by HPLC-MS/MS (TSQ Quantum Access MAX, Thermo Fisher, Dreieich, Germany). The plasma stability of procaine, propantheline, and diltiazem was determined in parallel to confirm the enzymatic activity.

[3] = test system: P. aeruginosa 83979 (MDR clinical isolate); test: microbe, parasite or virus in culture; details: for MIC: Pseudomonas aeruginosa
Protocol: as §1

[4] = test system: P. aeruginosa 84389 (MDR clinical isolate); test: microbe, parasite or virus in culture
Protocol: as §1

[5] = human plasma; 1 μM
Protocol: as §2

[6] = test system: P. aeruginosa PA14 DSM 19882; format: cell-based, Pseudomonas aeruginosa
Protocol: as §1

A. baumannii ATCC 17978 = format: cell-based, Acinetobacter baumannii
Protocol: as §1

A. baumannii NCTC 13301 = format: cell-based, Acinetobacter baumannii
Protocol: as §1

[7] = for liver microsomes Clint / liver microsomes t1/2: 1 μM; for liver microsomes t1/2: 120 min incubation
Protocol: The metabolic stability of testosterone, verapamil, and ketoconazole was determined in parallel to confirm the enzymatic activity of mouse/rat liver microsomes; for human liver microsomes, testosterone, diclofenac, and propranolol were used. Incubation was stopped after defined time points by precipitation of aliquots of enzymes with 2 volumes of cold acetonitrile containing an internal standard (15 nM diphenhydramine). Samples were stored on ice until the end of the incubation, and precipitated protein was removed by centrifugation (15 min, 4 °C, and 4000g). The concentration of the remaining test compound at the different time points was analyzed by HPLC-MS/MS (TSQ Altis Plus, Thermo Fisher, Dreieich, Germany) and used to determine the half-life (t1/2).

[8] = test system: Acinetobacter baumannii DSM-30007; format: cell-based
Protocol: as §1

Gram-negative bacteria = details: result in words; cited from earlier work

C[C@@H](O)[C@@H]1NC(=O)[C@H]2NC(=O)[C@H](CCC(N)=O)NC(=O)[C@@H](N)Cc3c[nH]c4c(cccc34)O[C@@H]2c2c[nH]c3cc(ccc23)[C@H](CCCN)[C@@H](C(=O)N[C@@H](CCCNC(=N)N)C(=O)N[C@@H](Cc2c[nH]c3ccccc23)C(=O)O)NC1=O [D61]
MIC K. pneumoniae [DSM-30104] (K. pneumoniae DSM-30104; pure compound, n = 2, Table 2): 8 µg/mL (≈ 7.26 µM)
IC50 HepG2 (HepG2; cytotoxicity, n = 2): > 37 µg/mL
Kd [1]: 3.6 ± 0.6 µM
MIC P. aeruginosa [PA01] (P. aeruginosa PA01; pure compound, n = 2, Table 2): 4 µg/mL (≈ 3.63 µM)
MIC A. baumannii [DSM-30008] (A. baumannii DSM-30008; pure compound, n = 2, Table 2): 0.5 µg/mL (≈ 0.454 µM)
MIC E. coli [ATCC25922] (E. coli ATCC25922; pure compound, n = 2, Table 2): 2 µg/mL (≈ 1.81 µM)

C[C@@H](O)[C@@H]1NC(=O)[C@H]2NC(=O)[C@H](CO)NC(=O)[C@@H](N)Cc3c[nH]c4c(cccc34)O[C@@H]2c2c[nH]c3cc(ccc23)[C@H](CCCN)[C@@H](C(=O)N[C@@H](CCCNC(=N)N)C(=O)N[C@@H](Cc2c[nH]c3ccccc23)C(=O)O)NC1=O [D64]
MIC K. pneumoniae [DSM-30104] (K. pneumoniae DSM-30104; DSM-30104): 16 µg/mL (≈ 15.1 µM)
IC50 HepG2 (HepG2): > 37 µg/mL
Kd [1]: 5.1 ± 0.7 µM
MIC P. aeruginosa [PA01] (P. aeruginosa PA01): 2 µg/mL (≈ 1.88 µM)
MIC A. baumannii [DSM-30008] (A. baumannii DSM-30008; DSM-30008): 0.5 µg/mL (≈ 0.471 µM)
MIC E. coli [ATCC25922] (E. coli ATCC25922; ATCC25922): 4 µg/mL (≈ 3.77 µM)

N=C(N)NCCC[C@H](NC(=O)[C@H]1NC(=O)[C@H](CO)NC(=O)[C@H]2NC(=O)[C@H](CCC(N)=O)NC(=O)[C@@H](N)Cc3c[nH]c4c(cccc34)O[C@@H]2c2c[nH]c3cc(ccc23)[C@@H]1CCCN)C(=O)N[C@@H](Cc1c[nH]c2ccccc12)C(=O)O [D69, darobactin 69]
plasma t1/2 (mouse CD-1 plasma, 1 μM): >4 h
plasma stability (degradation) (over 4 h): no degradation
MIC K. pneumoniae [DSM-30104] (K. pneumoniae DSM-30104; DSM-30104): 4 µg/mL (≈ 3.68 µM)
IC50 HepG2 (HepG2): > 37 µg/mL
plasma t1/2 [2]: >4 h
MIC P. aeruginosa 83979 ([3]; 83979 (MDR clinical isolate)): 8–16 μg mL^–1
MIC P. aeruginosa 84389 ([4]; 84389 (MDR clinical isolate)): 16–32 μg mL^–1
plasma t1/2 [5]: >4 h
Kd [1]: 1.4 ± 0.4 µM
MIC P. aeruginosa [PA01] (P. aeruginosa PA01): 1 µg/mL (≈ 0.919 µM)
MIC Pseudomonas aeruginosa PA01 DSM 22644 (P. aeruginosa PA01): 1 μg mL^–1
MIC P. aeruginosa PA14 DSM 19882 [6]: 16 μg mL^–1
MIC A. baumannii ATCC 17978 (A. baumannii ATCC 17978): 16 μg mL^–1
MIC A. baumannii NCTC 13301 (A. baumannii NCTC 13301): 8–16 μg mL^–1
MIC A. baumannii DSM-30008 (A. baumannii DSM-30008; DSM-30008): 0.5 μg mL^–1
MIC A. baumannii [DSM-30008] (A. baumannii DSM-30008; DSM-30008): 0.5 µg/mL (≈ 0.459 µM)
liver microsomes Clint ([7]; human): < 11.6 µL/min/mg
liver microsomes t1/2 ([7]; human): > 2 h
liver microsomes Clint ([7]; mouse C57BL/6): < 11.6 µL/min/mg
liver microsomes t1/2 ([7]; mouse C57BL/6): > 2 h
metabolism in murine liver microsomes ([7]; over 2 h): not metabolized
liver microsomes Clint ([7]; rat (Wistar)): < 11.6 µL/min/mg
liver microsomes t1/2 ([7]; rat (Wistar)): > 2 h
MIC E. coli [ATCC25922] (E. coli ATCC25922; ATCC25922): 1 µg/mL (≈ 0.919 µM)
MIC Acinetobacter baumannii DSM-30007 [8]: 2 μg mL^–1

N=C(N)NCC[C@H]1c2ccc3c(c[nH]c3c2)[C@H]2Oc3cccc4c(c[nH]c34)C[C@H](N)C(=O)N[C@@H](CC(N)=O)C(=O)N[C@@H]2C(=O)N[C@@H](CO)C(=O)N[C@@H]1C(=O)N[C@@H](CO)C(=O)N[C@@H](Cc1ccccc1)C(=O)O [DD, darobactin D, reference compound]
MIC K. pneumoniae [DSM-30104] (K. pneumoniae DSM-30104; DSM-30104): 8 to 16 µg/mL
MIC P. aeruginosa [PA01] (P. aeruginosa PA01): 2 µg/mL (≈ 2.01 µM)
published antibacterial activity (Gram-negative bacteria): inactive
MIC A. baumannii [DSM-30008] (A. baumannii DSM-30008; DSM-30008): 4 to 8 µg/mL
MIC E. coli [ATCC25922] (E. coli ATCC25922; ATCC25922): 1 µg/mL (≈ 1.01 µM)

C[C@@H](O)[C@H]1C(=O)N2C(C(=O)O)=C(S[C@@H]3CN[C@H](C(=O)N(C)C)C3)[C@H](C)[C@H]12 [meropenem]
MIC ([3]; BAL, read-out: resistance profile, MIC, P. aeroginosa 83979): > 16 µg/mL
MIC ([3]; read-out: MIC P. aeruginosa 83979): 16 µg/mL (≈ 41.7 µM)
MIC ([4]; Pseudomonas aeruginosa, read-out: MIC P. aeruginosa 84389): 16 µg/mL (≈ 41.7 µM)

darobactin E (WSWSKSF) [DE, native darobactin analogue, core peptide WSWSKSF]
published antibacterial activity (Gram-negative bacteria): rather inactive

Reference: publication PMC10726357, “New Genetically Engineered Derivatives of Antibacterial Darobactins Underpin Their Potential for Antibiotic Development” (Journal of Medicinal Chemistry, 2023)
